Results taken from PubChem BioAssay AID1963983 (Molecular Pharmacology Branch, DTP, NCI, 2024).

System: 186277-243-T-J2-PDC multi-cell spheroid viability
Assay: Anticancer human tumor 186277-243-T-J2-PDC patient-derived colon adenocarcinoma cell line growth inhibition [PI3K]
Settings: for IC50: curve of first compound; for viability, T/C: stronger effect = lower value
Summary of the method: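 Multi-cell spheroids combine tumor cells with HUVEC and human MSCs, treated with targeted agents alone or with inavolisib, alpelisib, duvelisib or copanlisib. Concentrations fall in half-log steps from at or near clinical Cmax, or from 10 microM where Cmax is unknown; viability read-out.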

[1] = second compound 0.0316 µM, first compound 0.000316 µM
[2] = second compound 0.0316 µM, first compound 0.001 µM
[3] = second compound 0.0316 µM, first compound 0.00316 µM
[4] = second compound 0.0316 µM, first compound 0.01 µM
[5] = second compound 0.0316 µM, first compound 0.0316 µM
[6] = second compound 0.0316 µM, first compound 0.1 µM
[7] = second compound 0.1 µM, first compound 0.000316 µM
[8] = second compound 0.1 µM, first compound 0.001 µM
[9] = second compound 0.1 µM, first compound 0.00316 µM
[10] = second compound 0.1 µM, first compound 0.01 µM
[11] = second compound 0.1 µM, first compound 0.0316 µM
[12] = second compound 0.1 µM, first compound 0.1 µM
[13] = second compound 0.316 µM, first compound 0.000316 µM
[14] = second compound 0.316 µM, first compound 0.001 µM
[15] = second compound 0.316 µM, first compound 0.00316 µM
[16] = second compound 0.316 µM, first compound 0.01 µM
[17] = second compound 0.316 µM, first compound 0.0316 µM
[18] = second compound 0.316 µM, first compound 0.1 µM
[19] = second compound 1 µM, first compound 0.000316 µM
[20] = second compound 1 µM, first compound 0.001 µM
[21] = second compound 1 µM, first compound 0.00316 µM
[22] = second compound 1 µM, first compound 0.01 µM
[23] = second compound 1 µM, first compound 0.0316 µM
[24] = second compound 1 µM, first compound 0.1 µM
[25] = second compound 3.16 µM, first compound 0.000316 µM
[26] = second compound 3.16 µM, first compound 0.001 µM
[27] = second compound 3.16 µM, first compound 0.00316 µM
[28] = second compound 3.16 µM, first compound 0.01 µM
[29] = second compound 3.16 µM, first compound 0.0316 µM
[30] = second compound 3.16 µM, first compound 0.1 µM
[31] = second compound 10 µM, first compound 0.000316 µM
[32] = second compound 10 µM, first compound 0.001 µM
[33] = second compound 10 µM, first compound 0.00316 µM
[34] = second compound 10 µM, first compound 0.01 µM
[35] = second compound 10 µM, first compound 0.0316 µM
[36] = second compound 10 µM, first compound 0.1 µM
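Also: spheroids exposed to compounds for seven days before viability reading.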
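For viability, T/C in this document: 100% = DMSO vehicle control viability.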

Cn1ncnc1[C@H]1c2n[nH]c(=O)c3cc(F)cc(c23)N[C@@H]1c1ccc(F)cc1 + CC(Nc1ncnc2nc[nH]c12)c1cc2cccc(Cl)c2c(=O)n1-c1ccccc1
IC50 (second compound 0.0316 µM): > 100 nM
IC50 (second compound 0.1 µM): > 100 nM
IC50 (second compound 0.316 µM): > 100 nM
IC50 (second compound 1 µM): > 100 nM
IC50 (second compound 3.16 µM): > 100 nM
IC50 (second compound 10 µM): > 100 nM
viability, T/C [1]: 88.3%
viability, T/C [2]: 94.7%
viability, T/C [3]: 86.8%
viability, T/C [4]: 100%
viability, T/C [5]: 104%
viability, T/C [6]: 88.9%
viability, T/C [7]: 93.2%
viability, T/C [8]: 111%
viability, T/C [9]: 94.9%
viability, T/C [10]: 103%
viability, T/C [11]: 99.9%
viability, T/C [12]: 99.3%
viability, T/C [13]: 93.5%
viability, T/C [14]: 107%
viability, T/C [15]: 96.1%
viability, T/C [16]: 92.5%
viability, T/C [17]: 91.3%
viability, T/C [18]: 85%
viability, T/C [19]: 89.3%
viability, T/C [20]: 95.5%
viability, T/C [21]: 114%
viability, T/C [22]: 97.4%
viability, T/C [23]: 87%
viability, T/C [24]: 84.4%
viability, T/C [25]: 108%
viability, T/C [26]: 107%
viability, T/C [27]: 102%
viability, T/C [28]: 84.5%
viability, T/C [29]: 101%
viability, T/C [30]: 99.1%
viability, T/C [31]: 99.6%
viability, T/C [32]: 90.6%
viability, T/C [33]: 84.4%
viability, T/C [34]: 86%
viability, T/C [35]: 88.6%
viability, T/C [36]: 85%

Cn1ncnc1[C@H]1c2n[nH]c(=O)c3cc(F)cc(c23)N[C@@H]1c1ccc(F)cc1 + Cc1nc(NC(=O)N2CCCC2C(N)=O)sc1-c1ccnc(C(C)(C)C(F)(F)F)c1
IC50 (second compound 0.0316 µM): > 100 nM
IC50 (second compound 0.1 µM): > 100 nM
IC50 (second compound 0.316 µM): > 100 nM
IC50 (second compound 1 µM): > 100 nM
IC50 (second compound 3.16 µM): 2.54 nM
IC50 (second compound 10 µM): < 0.316 nM
viability, T/C [1]: 86.8%
viability, T/C [2]: 82.2%
viability, T/C [3]: 94.5%
viability, T/C [4]: 96.9%
viability, T/C [5]: 112%
viability, T/C [6]: 92.7%
viability, T/C [7]: 114%
viability, T/C [8]: 99.6%
viability, T/C [9]: 97.1%
viability, T/C [10]: 117%
viability, T/C [11]: 116%
viability, T/C [12]: 108%
viability, T/C [13]: 114%
viability, T/C [14]: 113%
viability, T/C [15]: 112%
viability, T/C [16]: 107%
viability, T/C [17]: 104%
viability, T/C [18]: 90.4%
viability, T/C [19]: 101%
viability, T/C [20]: 94.9%
viability, T/C [21]: 99.9%
viability, T/C [22]: 91.6%
viability, T/C [23]: 85.5%
viability, T/C [24]: 65.9%
viability, T/C [25]: 64.3%
viability, T/C [26]: 52.7%
viability, T/C [27]: 45.9%
viability, T/C [28]: 46.9%
viability, T/C [29]: 43.9%
viability, T/C [30]: 33.6%
viability, T/C [31]: 13.6%
viability, T/C [32]: 12%
viability, T/C [33]: 14.8%
viability, T/C [34]: 17.4%
viability, T/C [35]: 11.3%
viability, T/C [36]: 8.17%

CC(=O)c1c(C)c2cnc(Nc3ccc(N4CCNCC4)cn3)nc2n(C2CCCC2)c1=O + Cc1nc(NC(=O)N2CCCC2C(N)=O)sc1-c1ccnc(C(C)(C)C(F)(F)F)c1
IC50 (second compound 0.0316 µM): > 100 nM
IC50 (second compound 0.1 µM): > 100 nM
IC50 (second compound 0.316 µM): > 100 nM
IC50 (second compound 1 µM): > 100 nM
IC50 (second compound 3.16 µM): 19 nM
IC50 (second compound 10 µM): < 0.316 nM
viability, T/C [1]: 96.5%
viability, T/C [2]: 95%
viability, T/C [3]: 96%
viability, T/C [4]: 114%
viability, T/C [5]: 123%
viability, T/C [6]: 138%
viability, T/C [7]: 97.7%
viability, T/C [8]: 106%
viability, T/C [9]: 104%
viability, T/C [10]: 109%
viability, T/C [11]: 136%
viability, T/C [12]: 135%
viability, T/C [13]: 101%
viability, T/C [14]: 113%
viability, T/C [15]: 109%
viability, T/C [16]: 101%
viability, T/C [17]: 124%
viability, T/C [18]: 126%
viability, T/C [19]: 104%
viability, T/C [20]: 102%
viability, T/C [21]: 99.5%
viability, T/C [22]: 107%
viability, T/C [23]: 94.3%
viability, T/C [24]: 83.6%
viability, T/C [25]: 58.7%
viability, T/C [26]: 53.6%
viability, T/C [27]: 59.2%
viability, T/C [28]: 53.3%
viability, T/C [29]: 46.1%
viability, T/C [30]: 37.4%
viability, T/C [31]: 20.9%
viability, T/C [32]: 12.4%
viability, T/C [33]: 13.7%
viability, T/C [34]: 11.6%
viability, T/C [35]: 15.4%
viability, T/C [36]: 10.5%
